# Laboratory results: patent US20230270748A1, “COMBINATION OF A BCL-2 INHIBITOR AND A HYPOMETHYLATING AGENT FOR TREATING CANCERS, USES AND PHARMACEUTICAL COMPOSITIONS THEREOF” (LES LABORATOIRES SERVIER, priority 2020, published 2023)
# Assays:
# Assay type in all cases: cell-based
# AML cell line EOL-1 = experiment: Cell viability (CellTiterGlo, 3 days), single agents and combination, in EOL-1; conditions: Homo sapiens, EOL1, 72 h; EOL-1, single agent, 3 days incubation, CTG signal
# AML cell line MV4;11 = experiment: Cell viability (CellTiterGlo, 3 days), single agents and combination, in MV4;11; conditions: Homo sapiens, 72 h; MV4;11, single agent, 3 days incubation, CTG signal
# AML cell line HL-60 = experiment: Cell viability (CellTiterGlo, 3 days), single agents and combination, in HL-60; conditions: Homo sapiens, 72 h; HL-60, single agent, 3 days incubation, CTG signal
# AML cell line OCI-AML3 = experiment: Cell viability (CellTiterGlo, 3 days), single agents and combination, in OCI-AML3; conditions: Homo sapiens, OCI-AML-3, 72 h; OCI-AML3, single agent, 3 days incubation, CTG signal
IC50 (AML cell line MV4;11) [µM],IC50 (AML cell line HL-60) [µM],IC50 (AML cell line OCI-AML3) [µM],Compound,IC50 (AML cell line EOL-1) [µM]
0.689,> 10,7.1,"Nc1ncn([C@@H]2O[C@H](CO)[C@@H](O)[C@H]2O)c(=O)n1 [5-azacitidine, azacitidine]",0.187
0.003,3.1,5.69,"Cc1c(N(C(=O)c2cc(-c3cc(Cl)ccc3C(=O)N3Cc4ccccc4C[C@H]3CN3CCOCC3)n(C)c2C)c2ccc(O)cc2)cc(C#N)n1C [Compound A, 5-(5-chloro-2-{[(3S)-3-(morpholin-4-ylmethyl)-3,4-dihydroisoquinolin-2(1H)-yl]carbonyl}phenyl)-N-(5-cyano-1,2-dimethyl-1H-pyrrol-3-yl)-N-(4-hydroxyphenyl)-1,2-dimethyl-1H-pyrrole-3-carboxamide]",0.018
